PubChem BioAssay AID194 (DTP/NCI, 2004)
Values joined by “and” are separate entries in the source; they are usually repeats but may differ in a detail not shown here. Identical values can stand only once. Results filed as inconclusive are left out.

Test system: BDF1 mice, B16 melanoma s.c., survival/tumor T/C
Test: NCI In Vivo Anticancer Drug Screen. Data for tumor model B16 Melanoma (subcutaneous) in B6D2F1 (BDF1) mice
Description: The antitumor activity of compounds was measured in mice bearing transplantable tumors. Survival or tumor size were measured and the results are expressed as the measurement made in the treated group (T) divided by the measurement made in the vehicle treated control group (C). The tumor model used in this assay is B16 Melanoma (subcutaneous) in B6D2F1 (BDF1) mice

SMILES: Cn1c(=O)[nH]c2nncnc2c1=O
- T/C (endpoint: median survival time, dose: 0.2 mg/kg/injection, schedule: Q01DX009 (ip), vehicle: water, higher = longer survival): 103 % of control
- T/C (endpoint: median survival time, dose: 0.4 mg/kg/injection, schedule: Q01DX009 (ip), vehicle: water, higher = longer survival): 119 % of control
- T/C (endpoint: median survival time, dose: 0.8 mg/kg/injection, schedule: Q01DX009 (ip), vehicle: water, higher = longer survival): 99 % of control
- T/C (endpoint: median survival time, dose: 3.12 mg/kg/injection, schedule: Q01DX009 (ip), vehicle: water, higher = longer survival): 98 % of control and 103 % of control
- T/C (endpoint: median survival time, dose: 6.25 mg/kg/injection, schedule: Q01DX009 (ip), vehicle: water, higher = longer survival): 117 % of control
- T/C (endpoint: median survival time, dose: 12.5 mg/kg/injection, schedule: Q01DX009 (ip), vehicle: water, higher = longer survival): 96 % of control and 99 % of control
- T/C (endpoint: median survival time, dose: 25.0 mg/kg/injection, schedule: Q01DX009 (ip), vehicle: water, higher = longer survival): 114 % of control

SMILES: ClC1=NC(Cl)C(Cl)=N/C1=N\c1ncn[nH]1 (stereo unspecified)
- T/C (endpoint: median survival time, dose: 4.0 mg/kg/injection, schedule: Q01DX009 (ip), vehicle: Klucel (hydroxypropylcellulose) (HPC), higher = longer survival): 106 % of control
- T/C (endpoint: median survival time, dose: 4.0 mg/kg/injection, schedule: Q01DX009 (ip), vehicle: water, higher = longer survival): 89 % of control
- T/C (endpoint: median survival time, dose: 8.0 mg/kg/injection, schedule: Q01DX009 (ip), vehicle: Klucel (hydroxypropylcellulose) (HPC), higher = longer survival): 113 % of control
- T/C (endpoint: median survival time, dose: 16.0 mg/kg/injection, schedule: Q01DX009 (ip), vehicle: Klucel (hydroxypropylcellulose) (HPC), higher = longer survival): 101 % of control
- T/C (endpoint: median survival time, dose: 16.0 mg/kg/injection, schedule: Q01DX009 (ip), vehicle: water, higher = longer survival): 170 % of control
- T/C (endpoint: median survival time, dose: 32.0 mg/kg/injection, schedule: Q01DX009 (ip), vehicle: water, higher = longer survival): 121 % of control

SMILES: CC[C@](O)(C(=O)O)c1cc2n(c(=O)c1CO)Cc1cc3ccccc3nc1-2
- T/C (endpoint: median survival time, dose: 0.25 mg/kg/injection, schedule: Q01DX009 (ip), vehicle: saline, higher = longer survival): 102 % of control
- T/C (endpoint: median survival time, dose: 0.5 mg/kg/injection, schedule: Q01DX009 (ip), vehicle: saline, higher = longer survival): 102 % of control
- T/C (endpoint: median survival time, dose: 1.0 mg/kg/injection, schedule: Q01DX009 (ip), vehicle: Klucel (hydroxypropylcellulose) (HPC), higher = longer survival): 104 % of control
- T/C (endpoint: median survival time, dose: 2.0 mg/kg/injection, schedule: Q01DX009 (ip), vehicle: Klucel (hydroxypropylcellulose) (HPC), higher = longer survival): 104 % of control
- T/C (endpoint: median survival time, dose: 2.0 mg/kg/injection, schedule: Q01DX009 (ip), vehicle: saline, higher = longer survival): 98 % of control

SMILES: O=C(NP(=O)(N1CC1)N1CC1)c1cc(I)ccc1I
- T/C (endpoint: median survival time, dose: 1.0 mg/kg/injection, schedule: Q02DX009 (ip), vehicle: saline with Tween-80, higher = longer survival): 96 % of control
- T/C (endpoint: median survival time, dose: 1.0 mg/kg/injection, schedule: Q02DX009 (ip), vehicle: saline, higher = longer survival): 103 % of control
- T/C (endpoint: median survival time, dose: 4.0 mg/kg/injection, schedule: Q01DX001 (oral), vehicle: saline with Tween-80, higher = longer survival): 98 % of control
- T/C (endpoint: median survival time, dose: 4.0 mg/kg/injection, schedule: Q02DX009 (ip), vehicle: saline with Tween-80, higher = longer survival): 95 % of control
- T/C (endpoint: median survival time, dose: 4.0 mg/kg/injection, schedule: Q02DX009 (ip), vehicle: saline, higher = longer survival): 180 % of control
- T/C (endpoint: median survival time, dose: 8.0 mg/kg/injection, schedule: Q01DX001 (oral), vehicle: saline with Tween-80, higher = longer survival): 92 % of control
- T/C (endpoint: median survival time, dose: 8.0 mg/kg/injection, schedule: Q02DX009 (ip), vehicle: saline with Tween-80, higher = longer survival): 88 % of control
- T/C (endpoint: median survival time, dose: 8.0 mg/kg/injection, schedule: Q02DX009 (ip), vehicle: saline, higher = longer survival): 153 % of control
- T/C (endpoint: median survival time, dose: 16.0 mg/kg/injection, schedule: Q01DX001 (oral), vehicle: saline with Tween-80, higher = longer survival): 91 % of control
- T/C (endpoint: median survival time, dose: 16.0 mg/kg/injection, schedule: Q02DX009 (ip), vehicle: saline with Tween-80, higher = longer survival): 117 % of control
- T/C (endpoint: median survival time, dose: 16.0 mg/kg/injection, schedule: Q02DX009 (ip), vehicle: saline, higher = longer survival): 180 % of control
- T/C (endpoint: median survival time, dose: 32.0 mg/kg/injection, schedule: Q01DX001 (oral), vehicle: saline with Tween-80, higher = longer survival): 93 % of control
- T/C (endpoint: median survival time, dose: 32.0 mg/kg/injection, schedule: Q02DX009 (ip), vehicle: saline, higher = longer survival): 97 % of control
- T/C (endpoint: median survival time, dose: 64.0 mg/kg/injection, schedule: Q01DX001 (oral), vehicle: saline with Tween-80, higher = longer survival): 105 % of control
- T/C (endpoint: median survival time, dose: 512.0 mg/kg/injection, schedule: Q01DX001 (oral), vehicle: saline with Tween-80, higher = longer survival): 88 % of control

SMILES: CCO/C=C1\SC(=S)N(c2ccc(C(=O)O)cc2)C1=O
- T/C (endpoint: median survival time, dose: 3.12 mg/kg/injection, schedule: Q01DX009 (ip), vehicle: Klucel (hydroxypropylcellulose) (HPC), higher = longer survival): 110 % of control
- T/C (endpoint: median survival time, dose: 6.25 mg/kg/injection, schedule: Q01DX009 (ip), vehicle: Klucel (hydroxypropylcellulose) (HPC), higher = longer survival): 101 % of control
- T/C (endpoint: median survival time, dose: 12.5 mg/kg/injection, schedule: Q01DX009 (ip), vehicle: Klucel (hydroxypropylcellulose) (HPC), higher = longer survival): 118 % of control
- T/C (endpoint: median survival time, dose: 50.0 mg/kg/injection, schedule: Q01DX009 (ip), vehicle: Klucel (hydroxypropylcellulose) (HPC), higher = longer survival): 121 % of control
- T/C (endpoint: median survival time, dose: 100.0 mg/kg/injection, schedule: Q01DX009 (ip), vehicle: Klucel (hydroxypropylcellulose) (HPC), higher = longer survival): 121 % of control

SMILES: CC1(C)N=C(N)N=C(N)N1c1ccc(CCCCc2ccc(Cl)c(S(=O)(=O)F)c2)c(Cl)c1
- T/C (endpoint: median survival time, dose: 8.0 mg/kg/injection, schedule: Q01DX009 (ip), vehicle: saline, higher = longer survival): 119 % of control
- T/C (endpoint: median survival time, dose: 12.0 mg/kg/injection, schedule: Q01DX009 (ip), vehicle: saline, higher = longer survival): 110 % of control
- T/C (endpoint: median survival time, dose: 18.0 mg/kg/injection, schedule: Q01DX009 (ip), vehicle: saline, higher = longer survival): 107 % of control
- T/C (endpoint: median survival time, dose: 27.0 mg/kg/injection, schedule: Q01DX009 (ip), vehicle: saline, higher = longer survival): 94 % of control

SMILES: Cc1c(N)nc(C(CC(N)=O)NCC(N)C(N)=O)nc1C(=O)NC(C(=O)NC(C)C(O)C(C)C(=O)NC(C(=O)NCCc1nc(-c2nc(C(=O)NCCCNCCCCN)cs2)cs1)C(C)O)C(OC1OC(CO)C(O)C(O)C1OC1OC(CO)C(O)C(OC(N)=O)C1O)c1cnc[nH]1 (stereo unspecified)
- T/C (endpoint: median survival time, dose: 1.56 mg/kg/injection, schedule: Q01DX009 (ip), vehicle: water, higher = longer survival): 164 % of control
- T/C (endpoint: median tumor weight (est.), dose: 1.56 mg/kg/injection, schedule: Q01DX009 (ip), vehicle: water, higher = larger tumour): 41 % of control
- T/C (endpoint: median tumor weight (est.), dose: 3.12 mg/kg/injection, schedule: Q01DX009 (ip), vehicle: water, higher = larger tumour): 24 % of control
- T/C (endpoint: median tumor weight (est.), dose: 6.25 mg/kg/injection, schedule: Q01DX009 (ip), vehicle: water, higher = larger tumour): 12 % of control

SMILES: N=c1ccn2c(n1)OC1C(O)C(CO)OC12 (stereo unspecified)
- T/C (endpoint: median survival time, dose: 37.5 mg/kg/injection, schedule: Q01DX009 (ip), vehicle: saline, higher = longer survival): 95 % of control
- T/C (endpoint: median survival time, dose: 75.0 mg/kg/injection, schedule: Q01DX009 (ip), vehicle: saline, higher = longer survival): 100 % of control
- T/C (endpoint: median survival time, dose: 150.0 mg/kg/injection, schedule: Q01DX009 (ip), vehicle: saline, higher = longer survival): 101 % of control

SMILES: O=CC(NC(=O)N(CCCl)N=O)C(O)C(O)C(O)CO (stereo unspecified)
- T/C (endpoint: median survival time, dose: 3.0 mg/kg/injection, schedule: Q01DX009 (ip), vehicle: saline, higher = longer survival): 115 % of control
- T/C (endpoint: median survival time, dose: 3.3 mg/kg/injection, schedule: Q01DX009 (ip), vehicle: saline, higher = longer survival): 115 % of control
- T/C (endpoint: median survival time, dose: 4.5 mg/kg/injection, schedule: Q01DX009 (ip), vehicle: saline, higher = longer survival): 112 % of control
- T/C (endpoint: median survival time, dose: 4.9 mg/kg/injection, schedule: Q01DX009 (ip), vehicle: saline, higher = longer survival): 102 % of control
- T/C (endpoint: median survival time, dose: 6.8 mg/kg/injection, schedule: Q01DX009 (ip), vehicle: saline, higher = longer survival): 89 % of control
- T/C (endpoint: median survival time, dose: 7.4 mg/kg/injection, schedule: Q01DX009 (ip), vehicle: saline, higher = longer survival): 100 % of control
- T/C (endpoint: median survival time, dose: 10.0 mg/kg/injection, schedule: Q01DX009 (ip), vehicle: saline, higher = longer survival): 122 % of control
- T/C (endpoint: median survival time, dose: 12.0 mg/kg/injection, schedule: Q04DX003 (ip), vehicle: saline, higher = longer survival): 112 % of control
- T/C (endpoint: median survival time, dose: 13.0 mg/kg/injection, schedule: Q01DX001 (ip), vehicle: saline, higher = longer survival): 118 % of control
- T/C (endpoint: median survival time, dose: 16.0 mg/kg/injection, schedule: Q01DX001 (ip), vehicle: saline, higher = longer survival): 112 % of control
- T/C (endpoint: median survival time, dose: 18.0 mg/kg/injection, schedule: Q04DX003 (ip), vehicle: saline, higher = longer survival): 106 % of control
- T/C (endpoint: median survival time, dose: 20.0 mg/kg/injection, schedule: Q01DX001 (ip), vehicle: saline, higher = longer survival): 96 % of control
- T/C (endpoint: median survival time, dose: 24.0 mg/kg/injection, schedule: Q01DX001 (ip), vehicle: saline, higher = longer survival): 102 % of control
- T/C (endpoint: median survival time, dose: 27.0 mg/kg/injection, schedule: Q04DX003 (ip), vehicle: saline, higher = longer survival): 108 % of control
- T/C (endpoint: median survival time, dose: 36.0 mg/kg/injection, schedule: Q01DX001 (ip), vehicle: saline, higher = longer survival): 112 % of control

SMILES: O
- T/C (endpoint: median survival time, dose: 50.0 mg/kg/injection, schedule: Q02DX009 (ip), vehicle: saline, higher = longer survival): 94 % of control
- T/C (endpoint: median survival time, dose: 100.0 mg/kg/injection, schedule: Q02DX009 (ip), vehicle: saline, higher = longer survival): 101 % of control
- T/C (endpoint: median survival time, dose: 200.0 mg/kg/injection, schedule: Q02DX009 (ip), vehicle: saline, higher = longer survival): 118 % of control
- T/C (endpoint: median survival time, dose: 400.0 mg/kg/injection, schedule: Q02DX009 (ip), vehicle: saline, higher = longer survival): 98 % of control

SMILES: O=NN(CCCl)C(=O)NC1[C@H](O)CCC[C@@H]1O (stereo partly specified)
- T/C (endpoint: median survival time, dose: 1.56 mg/kg/injection, schedule: Q01DX007 (ip), vehicle: water, higher = longer survival): 95 % of control
- T/C (endpoint: median survival time, dose: 2.59 mg/kg/injection, schedule: Q01DX007 (ip), vehicle: water, higher = longer survival): 108 % of control
- T/C (endpoint: median survival time, dose: 4.32 mg/kg/injection, schedule: Q01DX007 (ip), vehicle: water, higher = longer survival): 114 % of control
